Test results as given in publication PMC6680430, “Quantitative Prediction of Human Pharmacokinetics and Pharmacodynamics of CKD519, a Potent Inhibitor of Cholesteryl Ester Transfer Protein (CETP)” (Pharmaceutics, 2019).

Tests used:
[1] = animal full PK study in rats (NCA and PK model); type: in vivo; conditions: rat; for Tmax: median (range)
Method: (§1) Animal PK data for analysis were collected from preclinical studies performed at ChongKunDang laboratory. All animal experiments were performed with relevant guidelines and regulations, and the protocol was approved by the Institutional Animal Care and Use Committee (IACUC) of ChongKunDang (Approval number: S-13-015). A single dose of CKD519 was administered either orally or via intravenous infusion to hamsters (intravenous dose of 0.5 mg/kg, oral dose of 3, 15, or 45 mg/kg, n = 30); rats (intravenous dose of 0.5 mg/kg, oral dose of 5, 15, or 45 mg/kg, n = 20); and monkeys (intravenous dose of 0.1 mg/kg, oral dose of 1, 5, or 30 mg/kg, n = 16). The identical solution was administered to all animal species in the fasted state. Plasma CKD519 concentration was measured before and at 0.083, 0.25, 0.5, 1, 2, 4, 8, and 24 h after administration in hamsters and rats, and before and at 0.083, 0.25, 0.5, 1, 2, 4, 6, 8, 12, 24, 48, and 72 h after administration in monkeys. Two hamsters given identical doses were sampled in a rotating manner.
(§2) The plasma samples were stored at −70 °C before the analysis and were thawed at room temperature. […] A sensitive, specific, and validated liquid chromatography coupled with a tandem mass spectrometer (HPLC-MS/MS) assay was used for the determination of CKD519 concentration in animal plasma samples. A structural analogue of CKD519 was used as the internal standard. The validated working range was from 2 ng/mL (the lower limit of quantification, LLOQ) to 20,000 ng/mL. Quality control (QC) samples were analyzed together with the study samples. Intra-day and inter-day precision and accuracy results were within the acceptance criteria based on the Ministry of Food and Drug Safety (MFDS) guidelines. An exploratory data analysis was performed through non-compartmental analysis (NCA) using the NonCompart package (developed by Bae, version 0.4.4) in R (version 3.5.1, The R Foundation, Vienna, Austria).
(§3) Using the PK data from each species, nonlinear mixed-effect modeling was conducted using NONMEM (version 7.4, Icon Development Solutions, Ellicott City, MD, USA) reflecting the clues from NCA. The first-order conditional estimation method with interaction (FOCE-I) was used whenever applicable. The adequacy of the model was checked using changes in the objective function value (OFV), visual inspection of various diagnostic plots (goodness-of-fit (GOF) plot), and methods of visual predictive check (VPC) and bootstrap were used for the diagnostics on the model stability and parameter reliability. The significance of model improvement was evaluated using a likelihood-ratio test (LRT). In the nested models, the result was considered statistically significant if the OFV decreased more than 3.84 (p-value < 0.05, degree of freedom (df) = 1) and 5.99 (p-value < 0.05, df = 2). The degree of freedom is defined as the gap of the numbers of parameters of the two subsequent models that are being compared. In the case of non-nested models, the Akaike information criteria (AIC) value was used to select the model that best described the data. R (version 3.5.1., R Foundation for Statistical Computing, Vienna, Austria) was used for data preparation, NCA, graphical analysis, model diagnostics, and statistical summaries.
(§4) Initially, a two-compartment model with first-order absorption was developed to describe the biphasic curve, and several absorption structures (e.g., zero-order with absorption lag time, Weibull-type absorption) were applied to the base model if needed. The change in absolute bioavailability (F) by dose levels was also considered. […]

[2] = animal full PK study in monkeys (NCA and PK model); type: in vivo, Cynomolgus monkey; conditions: monkey; for Tmax: median (range)
Method: as §1, §2, §3, §4

[3] = absolute bioavailability from first-in-human study (observed oral AUC vs predicted intravenous AUC); type: in vivo; conditions: AUC ratio observed oral / predicted intravenous
Excerpt: The absolute bioavailability was estimated for each dose (Table 7) by comparing the AUC of the observed oral PK profile in the first-in-human study and that of the predicted human i.v. PK profile from animal PK data. […] Even though the trends were similar, absolute bioavailability estimated by the observed PK profile was less than one-fifth of the predicted bioavailability using the animal PK data. […] Delayed absorption was also found, and the difference in formulation between animals and humans was considered to have caused the delay by affecting the absorption rate. Simulated AUC, Cmax, and Tmax were within 2-folds, the range that is generally accepted for animal-to-human predictions.

[4] = PK model, final estimate (%RSE)
[5] = intravenous 0.5 mg/kg, NCA, mean ± SD
[6] = two-compartment PK model, final estimate (%RSE)
[7] = intravenous 0.1 mg/kg, NCA, mean ± SD

α (scale parameter of Weibull absorption) [1, 4]: 3.86 (3.94%) | β (shape parameter of Weibull absorption) [1, 4]: 2.59 (4.59%) | AUClast [1, 5]: 3940 ± 585 ng·h/mL | V/F * (V for intravenous) [1, 5]: 494 ± 126 mL | ke [1, 5]: 0.0677 ± 0.0214 h⁻¹ | t1/2 [1, 5]: 12.0 ± 2.98 h | Tmax ([1]; intravenous 0.5 mg/kg, NCA): 0.083 (0.083–0.083) h | AUClast ([1]; oral 5 mg/kg, NCA, mean ± SD): 6640 ± 932 ng·h/mL | CL/F ([1]; oral 5 mg/kg, NCA, mean ± SD): 188 ± 28.6 mL/h | Cmax ([1]; oral 5 mg/kg, NCA, mean ± SD): 893 ± 231 ng/mL | V/F ([1]; oral 5 mg/kg, NCA, mean ± SD): 2860 ± 1930 mL | ke ([1]; oral 5 mg/kg, NCA, mean ± SD): 0.0784 ± 0.0245 h⁻¹ | t1/2 ([1]; oral 5 mg/kg, NCA, mean ± SD): 10.0 ± 4.78 h | Tmax ([1]; oral 5 mg/kg, NCA): 3 (3–4) h | AUClast ([1]; oral 15 mg/kg, NCA, mean ± SD): 11600 ± 3240 ng·h/mL | CL/F ([1]; oral 15 mg/kg, NCA, mean ± SD): 323 ± 82.8 mL/h | Cmax ([1]; oral 15 mg/kg, NCA, mean ± SD): 2040 ± 448 ng/mL | V/F ([1]; oral 15 mg/kg, NCA, mean ± SD): 4770 ± 1740 mL | ke ([1]; oral 15 mg/kg, NCA, mean ± SD): 0.0701 ± 0.0107 h⁻¹ | t1/2 ([1]; oral 15 mg/kg, NCA, mean ± SD): 10.1 ± 1.82 h | Tmax ([1]; oral 15 mg/kg, NCA): 2 (2–4) h | AUClast ([1]; oral 45 mg/kg, NCA, mean ± SD): 12700 ± 1900 ng·h/mL | CL/F ([1]; oral 45 mg/kg, NCA, mean ± SD): 887 ± 140 mL/h | V/F ([1]; oral 45 mg/kg, NCA, mean ± SD): 10100 ± 1380 mL | ke ([1]; oral 45 mg/kg, NCA, mean ± SD): 0.0876 ± 0.00791 h⁻¹ | t1/2 ([1]; oral 45 mg/kg, NCA, mean ± SD): 7.97 ± 0.782 h | Tmax ([1]; oral 45 mg/kg, NCA): 3 (2–5) h | CL [1, 6]: 0.0326 (5.58%) L/h | Q [1, 6]: 0.0404 (12.0%) L/h | Vc [1, 6]: 0.0287 (6.41%) L | Vp [1, 6]: 0.285 (8.21%) L | α (scale parameter of Weibull absorption) [2, 4]: 5.44 (11.8%) | β (shape parameter of Weibull absorption) [2, 4]: 3.54 (6.50%) | AUClast [2, 7]: 5150 ± 1530 ng·h/mL | V/F * (V for intravenous) [2, 7]: 3500 ± 1380 mL | ke [2, 7]: 0.0105 ± 0.00836 h⁻¹ | t1/2 [2, 7]: 104 ± 80.0 h | Tmax ([2]; intravenous 0.1 mg/kg, NCA): 0.1665 (0.083–0.25) h | AUClast ([2]; oral 1 mg/kg, NCA, mean ± SD): 8940 ± 954 ng·h/mL | CL/F ([2]; oral 1 mg/kg, NCA, mean ± SD): 230 ± 64.6 mL/h | Cmax ([2]; oral 1 mg/kg, NCA, mean ± SD): 752 ± 148 ng/mL | V/F ([2]; oral 1 mg/kg, NCA, mean ± SD): 17600 ± 4000 mL | ke ([2]; oral 1 mg/kg, NCA, mean ± SD): 0.0140 ± 0.0057 h⁻¹ | t1/2 ([2]; oral 1 mg/kg, NCA, mean ± SD): 59.9 ± 35.5 h | Tmax ([2]; oral 1 mg/kg, NCA): 5.5 (5–6) h | AUClast ([2]; oral 5 mg/kg, NCA, mean ± SD): 29500 ± 4840 ng·h/mL | CL/F ([2]; oral 5 mg/kg, NCA, mean ± SD): 309 ± 77.3 mL/h | Cmax ([2]; oral 5 mg/kg, NCA, mean ± SD): 4700 ± 1100 ng/mL | V/F ([2]; oral 5 mg/kg, NCA, mean ± SD): 50500 ± 16900 mL | ke ([2]; oral 5 mg/kg, NCA, mean ± SD): 0.00707 ± 0.00412 h⁻¹ | t1/2 ([2]; oral 5 mg/kg, NCA, mean ± SD): 125 ± 64.6 h | Tmax ([2]; oral 5 mg/kg, NCA): 7 (6–8) h | AUClast ([2]; oral 30 mg/kg, NCA, mean ± SD): 79100 ± 15600 ng·h/mL | CL/F ([2]; oral 30 mg/kg, NCA, mean ± SD): 999 ± 123 mL/h | Cmax ([2]; oral 30 mg/kg, NCA, mean ± SD): 10200 ± 2390 ng/mL | V/F ([2]; oral 30 mg/kg, NCA, mean ± SD): 67800 ± 44900 mL | ke ([2]; oral 30 mg/kg, NCA, mean ± SD): 0.0194 ± 0.0104 h⁻¹ | t1/2 ([2]; oral 30 mg/kg, NCA, mean ± SD): 46.3 ± 26.8 h | Tmax ([2]; oral 30 mg/kg, NCA): 8 (8–8) h | CL [2, 6]: 0.0344 (24.0%) L/h | Q [2, 6]: 0.0895 (49.9%) L/h | Vc [2, 6]: 0.383 (74.7%) L | Vp [2, 6]: 3.40 (51.5%) L | Absolute Bioavailability ([3]; oral dose 25 mg): 0.0362 | Absolute Bioavailability ([3]; oral dose 50 mg): 0.0321 | Absolute Bioavailability ([3]; oral dose 100 mg): 0.0191 | Absolute Bioavailability ([3]; oral dose 200 mg): 0.0140 | Absolute Bioavailability ([3]; oral dose 400 mg): 0.00814
Structure (SMILES): COc1cc(F)c(C(C)C)cc1C1=C(CN2C(=O)O[C@H](c3cc(C(F)(F)F)cc(C(F)(F)F)c3)[C@@H]2C)CC(C)(C)CC1 [CKD519]
